Values joined by “and” are separate entries in the source; they are usually repeats but may differ in a detail not shown here. Identical values can stand only once. Inconclusive results and toxic doses are left out. Rule for the calls: active = survival T/C of 150% or more; inactive = T/C below 125% in these data.
System: P388 leukemia ip, CD2F1 mice, survival T/C
Test: NCI In Vivo Anticancer Drug Screen. Data for tumor model P388 Leukemia (intraperitoneal) in CD2F1 (CDF1) mice
Details: endpoint: median survival time, higher = longer survival
Summary of the method: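 Mice carrying the transplanted tumor received test compound or vehicle. Survival was recorded in each group, and the value is the treated-group measurement divided by that of the vehicle-treated control group.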

[1] = dose: 60.0 mg/kg/injection, schedule: Q01DX005 (ip), vehicle: saline
[2] = dose: 120.0 mg/kg/injection, schedule: Q01DX005 (ip), vehicle: saline
[3] = dose: 240.0 mg/kg/injection, schedule: Q01DX005 (ip), vehicle: saline
[4] = dose: 50.0 mg/kg/injection, schedule: Q01DX005 (ip), vehicle: saline
[5] = dose: 100.0 mg/kg/injection, schedule: Q01DX005 (ip), vehicle: saline
[6] = dose: 25.0 mg/kg/injection, schedule: Q01DX009 (ip), vehicle: saline with Tween-80
[7] = dose: 50.0 mg/kg/injection, schedule: Q01DX009 (ip), vehicle: saline with Tween-80
[8] = dose: 100.0 mg/kg/injection, schedule: Q01DX009 (ip), vehicle: saline with Tween-80
[9] = dose: 200.0 mg/kg/injection, schedule: Q01DX009 (ip), vehicle: saline with Tween-80
[10] = dose: 100.0 mg/kg/injection, schedule: Q01DX001 (ip), vehicle: Klucel (hydroxypropylcellulose) (HPC)
[11] = dose: 200.0 mg/kg/injection, schedule: Q01DX001 (ip), vehicle: Klucel (hydroxypropylcellulose) (HPC)
[12] = dose: 50.0 mg/kg/injection, schedule: Q01DX009 (ip), vehicle: saline
[13] = dose: 100.0 mg/kg/injection, schedule: Q01DX009 (ip), vehicle: saline
[14] = dose: 200.0 mg/kg/injection, schedule: Q01DX009 (ip), vehicle: saline
[15] = dose: 6.25 mg/kg/injection, schedule: Q01DX009 (ip), vehicle: Klucel (hydroxypropylcellulose) (HPC)
[16] = dose: 12.5 mg/kg/injection, schedule: Q01DX009 (ip), vehicle: Klucel (hydroxypropylcellulose) (HPC)
[17] = dose: 25.0 mg/kg/injection, schedule: Q01DX009 (ip), vehicle: Klucel (hydroxypropylcellulose) (HPC)
[18] = dose: 100.0 mg/kg/injection, schedule: Q04DX002 (ip), vehicle: Klucel (hydroxypropylcellulose) (HPC)
[19] = dose: 200.0 mg/kg/injection, schedule: Q04DX002 (ip), vehicle: Klucel (hydroxypropylcellulose) (HPC)
[20] = dose: 400.0 mg/kg/injection, schedule: Q04DX002 (ip), vehicle: Klucel (hydroxypropylcellulose) (HPC)

Measured: T/C

CNC(=O)NCc1cccnc1
inactive: [1] 107 % of control | [2] 103 % of control | [3] 99 % of control

CC(=O)Nc1n[nH]c(C)n1
inactive: dose: 25.0 mg/kg/injection, schedule: Q01DX005 (ip), vehicle: saline 97 % of control | [4] 106 % of control | [5] 97 % of control

C/C(=N\NC(N)=Nc1ccccc1)c1ccc2c(c1)Cc1ccccc1-2
inactive: dose: 25.0 mg/kg/injection, schedule: Q04DX002 (ip), vehicle: saline with Tween-80 103 % of control | dose: 50.0 mg/kg/injection, schedule: Q04DX002 (ip), vehicle: saline with Tween-80 94 % of control | dose: 100.0 mg/kg/injection, schedule: Q04DX002 (ip), vehicle: saline with Tween-80 104 % of control

O=C1C=C2SCCN2C(=O)C1
inactive: [6] 101 % of control | [7] 92 % of control | [8] 97 % of control | [9] 99 % of control

O=C(C(Oc1ccc(Cl)cc1)n1cncn1)N1CCOC1C1CCCCC1 (configuration not stated)
inactive: dose: 50.0 mg/kg/injection, schedule: Q01DX001 (ip), vehicle: Klucel (hydroxypropylcellulose) (HPC) 103 % of control | [10] 100 % of control | [11] 100 % of control

CCOC(=O)C(C(C)=O)C(=O)c1ccccc1 (configuration not stated)
inactive: dose: 50.0 mg/kg/injection, schedule: Q01DX009 (ip), vehicle: saline + alcohol 95 % of control | dose: 100.0 mg/kg/injection, schedule: Q01DX009 (ip), vehicle: saline + alcohol 101 % of control | dose: 200.0 mg/kg/injection, schedule: Q01DX009 (ip), vehicle: saline + alcohol 96 % of control

O=C(C1CC2C=CC1C2)N1CCCCC1 (configuration not stated)
inactive: [12] 90 % of control | [13] 91 % of control | [14] 98 % of control

c1cc[n+](CCC[n+]2ccccc2)cc1
inactive: [12] 98 % of control | [13] 97 % of control | [14] 100 % of control

O=C(N/N=C/c1ccc(C(F)(F)F)cc1)c1ccncc1
inactive: dose: 15.0 mg/kg/injection, schedule: Q01DX005 (ip), vehicle: saline with Tween-80 106 % of control | dose: 30.0 mg/kg/injection, schedule: Q01DX005 (ip), vehicle: saline with Tween-80 101 % of control | dose: 60.0 mg/kg/injection, schedule: Q01DX005 (ip), vehicle: saline with Tween-80 101 % of control and 97 % of control | dose: 120.0 mg/kg/injection, schedule: Q01DX005 (ip), vehicle: saline with Tween-80 100 % of control | dose: 240.0 mg/kg/injection, schedule: Q01DX005 (ip), vehicle: saline with Tween-80 100 % of control

O=c1[nH]c(CNCCO)nc2sc3c(c12)CCCC3
inactive: [7] 100 % of control | [8] 105 % of control | [9] 96 % of control

COc1ccc2nc(C)cc(N/N=C/c3cccnc3)c2c1
inactive: [15] 101 % of control | [16] 104 % of control | [17] 113 % of control

CCCCCCCNN=NCC(C)C(C)CC (configuration not stated)
inactive: dose: 100.0 mg/kg/injection, schedule: Q04DX003 (ip), vehicle: saline 95 % of control | dose: 200.0 mg/kg/injection, schedule: Q04DX003 (ip), vehicle: saline 95 % of control | dose: 400.0 mg/kg/injection, schedule: Q04DX003 (ip), vehicle: saline 97 % of control

CCOc1ccc(/C=C(\C(=O)c2ccccc2)S(=O)(=O)c2ccc(OC)cc2)cc1OC
inactive: dose: 50.0 mg/kg/injection, schedule: Q01DX005 (ip), vehicle: saline with Tween-80 92 % of control | dose: 100.0 mg/kg/injection, schedule: Q01DX005 (ip), vehicle: saline with Tween-80 92 % of control

O=C(O)c1cc(Br)ccc1OCc1cccc(Cl)c1
inactive: dose: 25.0 mg/kg/injection, schedule: Q04DX003 (ip), vehicle: saline with Tween-80 101 % of control | dose: 50.0 mg/kg/injection, schedule: Q04DX003 (ip), vehicle: saline with Tween-80 98 % of control

C=C(C)C(=NC1CCCCC1)NC(C)(C)C
inactive: dose: 25.0 mg/kg/injection, schedule: Q01DX005 (ip), vehicle: Klucel (hydroxypropylcellulose) (HPC) 99 % of control | dose: 50.0 mg/kg/injection, schedule: Q01DX005 (ip), vehicle: Klucel (hydroxypropylcellulose) (HPC) 100 % of control | dose: 100.0 mg/kg/injection, schedule: Q01DX005 (ip), vehicle: Klucel (hydroxypropylcellulose) (HPC) 99 % of control and 102 % of control

CCOP(=O)(Nc1ccc(OC)cc1)OCC
inactive: [12] 103 % of control | [13] 108 % of control | [14] 111 % of control

CC(Cc1ccccc1)N(C)C(=O)c1ccc[n+](C)c1 (configuration not stated)
inactive: [4] 107 % of control | [5] 109 % of control

O=S(=O)(O)C(O)C(F)(F)C(F)(F)C(F)(F)F (configuration not stated)
inactive: [1] 98 % of control | [2] 94 % of control | [3] 99 % of control

O=[Se]([O][Sn]([O][Se](=O)c1ccccc1)([O][Se](=O)c1ccccc1)[O][Se](=O)c1ccccc1)c1ccccc1 (configuration not stated)
inactive: dose: 12.5 mg/kg/injection, schedule: Q01DX009 (ip), vehicle: saline with Tween-80 98 % of control | [6] 103 % of control | [7] 110 % of control and 118 % of control

Cc1cc2nc(Cc3nc4cc(C)c(C)cc4[nH]3)[nH]c2cc1C
inactive: [6] 90 % of control | [7] 90 % of control | [8] 100 % of control and 95 % of control | [9] 90 % of control

O=c1ccn(C2OC(CO)C(O)C2Cl)c(=O)[nH]1 (configuration not stated)
inactive: [15] 101 % of control | [16] 104 % of control | [17] 109 % of control | dose: 50.0 mg/kg/injection, schedule: Q01DX009 (ip), vehicle: Klucel (hydroxypropylcellulose) (HPC) 105 % of control | dose: 100.0 mg/kg/injection, schedule: Q01DX009 (ip), vehicle: Klucel (hydroxypropylcellulose) (HPC) 101 % of control | dose: 200.0 mg/kg/injection, schedule: Q01DX009 (ip), vehicle: Klucel (hydroxypropylcellulose) (HPC) 104 % of control

CCN(CC)C(=O)C(C)C1=C(C)C(N(CC)CC)=NS(=O)(=O)c2ccccc21 (configuration not stated)
inactive: [18] 102 % of control | [19] 90 % of control | [20] 109 % of control

Cn1c(=O)c2nc(-c3cccnc3)cnc2n(C)c1=O
inactive: [10] 105 % of control | [11] 105 % of control | dose: 400.0 mg/kg/injection, schedule: Q01DX001 (ip), vehicle: Klucel (hydroxypropylcellulose) (HPC) 105 % of control

Cc1ccc(S(=O)(=O)/N=S(\C)CCCl)cc1 (configuration not stated)
inactive: dose: 100.0 mg/kg/injection, schedule: Q04DX003 (ip), vehicle: suspension in saline 100 % of control | dose: 200.0 mg/kg/injection, schedule: Q04DX003 (ip), vehicle: suspension in saline 100 % of control | dose: 400.0 mg/kg/injection, schedule: Q04DX003 (ip), vehicle: suspension in saline 106 % of control

ICCN(CCI)c1ccc2c(ccc3ccccc32)c1
inactive: dose: 100.0 mg/kg/injection, schedule: Q04DX003 (ip), vehicle: Klucel (hydroxypropylcellulose) (HPC) 102 % of control | dose: 200.0 mg/kg/injection, schedule: Q04DX003 (ip), vehicle: Klucel (hydroxypropylcellulose) (HPC) 118 % of control | dose: 400.0 mg/kg/injection, schedule: Q04DX003 (ip), vehicle: Klucel (hydroxypropylcellulose) (HPC) 118 % of control

O=C(CNC(=O)OCc1ccccc1)OC(=O)CNC(=O)OCc1ccccc1
inactive: [18] 96 % of control | [19] 93 % of control | [20] 93 % of control

Reference: PubChem BioAssay AID330 (DTP/NCI, 2004)
